# Positions of bridges follow the written chain, without caps; N, C: chain ends. Residues, ends and D or L forms follow the SMILES beside them. No end group written: not given here.
# What was measured:
# hGalR2 = biological target: T1, hGalR2 (Homo sapiens, UniProt O43603); experiment: SRE-Luc receptor activation assay, hGalR2; format: cell-based; conditions: for effect of cysteine mutation on receptor activation of GalR2: single dose (1 μM, 6 hours), compared with wild type hSPX; for hGalR2 Emax: Relative to hSPX Emax; for activity on GalR2, in words: full-dose SRE-Luc
# T1 construct: host or cells: HEK293
# T1 sequence (O43603 1-387): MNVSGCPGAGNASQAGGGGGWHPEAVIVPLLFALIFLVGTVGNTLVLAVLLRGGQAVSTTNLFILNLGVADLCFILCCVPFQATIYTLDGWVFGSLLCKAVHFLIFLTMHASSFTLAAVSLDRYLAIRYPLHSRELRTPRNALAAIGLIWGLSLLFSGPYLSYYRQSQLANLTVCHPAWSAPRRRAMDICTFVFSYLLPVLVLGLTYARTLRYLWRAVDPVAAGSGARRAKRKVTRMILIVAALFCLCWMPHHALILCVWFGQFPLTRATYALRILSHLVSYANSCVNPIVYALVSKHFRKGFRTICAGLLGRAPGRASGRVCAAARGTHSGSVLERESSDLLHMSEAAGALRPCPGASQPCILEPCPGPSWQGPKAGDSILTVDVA
# hGalR3 = biological target: T2, hGalR3 (Homo sapiens, UniProt O60755); experiment: SRE-Luc receptor activation assay, hGalR3; format: cell-based; conditions: for effect of cysteine mutation on receptor activation of GalR3: single dose (1 μM, 6 hours), compared with wild type hSPX; for hGalR3 Emax: Relative to hSPX Emax; for activity on GalR3, in words: full-dose SRE-Luc
# T2 construct: host or cells: HEK293
# T2 sequence (O60755 1-368): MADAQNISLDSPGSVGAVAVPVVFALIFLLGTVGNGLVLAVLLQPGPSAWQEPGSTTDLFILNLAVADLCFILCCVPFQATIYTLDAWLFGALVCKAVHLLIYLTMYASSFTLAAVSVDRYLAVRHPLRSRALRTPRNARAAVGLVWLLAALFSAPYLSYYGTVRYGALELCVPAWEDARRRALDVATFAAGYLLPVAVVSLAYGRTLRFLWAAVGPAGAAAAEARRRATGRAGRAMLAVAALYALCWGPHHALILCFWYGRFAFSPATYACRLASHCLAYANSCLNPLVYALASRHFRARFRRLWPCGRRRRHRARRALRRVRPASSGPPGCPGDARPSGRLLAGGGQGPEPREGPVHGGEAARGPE
# [1] = In vitro serum stability assay (RP-HPLC); format: in vitro ADME, rat; conditions: rat serum in RPMI 1640, 37° C., 100 μg/mL; read-out: serum half-life (t1/2)
# Protocol: The serum stability of CSAs was tested using an in vitro assay followed by reverse-phase high-performance liquid chromatography (RP-HPLC) analysis (FIGS. 33-38).
# 750 μL RPMI medium 1640 (Thermo Fisher Scientific) was mixed with […] rat serum, and incubated at 37° C. for 15 min before adding peptide. The peptide dissolved in water was added into the reaction buffer to make a final concentration of 100 μg/mL. At each time point (5, 15, 30, 60, 120, 240, and 480 min), 100 μL reaction solution were taken, and mixed with 200 μL 6% trichloroacetic acid (TCA, Sigma-Aldrich). The resulting cloudy solution was cooled at 4° C. for 15 min, and centrifuged for 10 mins at 13,000 rpm. The supernatant was then analyzed by RP-HPLC. The extent of intact peptide was calculated based on the peak area and was normalized using a control sample.
# hGalR1 = biological target: T3, hGalR1 (Homo sapiens, UniProt P47211); experiment: SRE-Luc receptor activation assay, hGalR1; format: cell-based; conditions: for hGalR1 Emax: Relative to hGAL Emax; for activity on GalR1, in words: full-dose SRE-Luc
# T3 sequence (P47211 1-349): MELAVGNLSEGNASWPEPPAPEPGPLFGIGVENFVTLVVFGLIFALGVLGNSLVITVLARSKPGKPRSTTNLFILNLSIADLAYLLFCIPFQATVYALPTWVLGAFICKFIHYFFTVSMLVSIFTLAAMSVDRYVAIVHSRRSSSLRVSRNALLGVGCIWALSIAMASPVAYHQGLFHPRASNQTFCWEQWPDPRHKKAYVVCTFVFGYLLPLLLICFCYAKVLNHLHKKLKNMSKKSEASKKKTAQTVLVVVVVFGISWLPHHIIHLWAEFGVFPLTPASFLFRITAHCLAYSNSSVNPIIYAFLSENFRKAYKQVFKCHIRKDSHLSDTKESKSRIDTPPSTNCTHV
# [2] = HEK293 cells transfected with hGalR1, Gqi, SRE-Luc, 6 h treatment, full-dose
Compound,effect of cysteine mutation on receptor activation of GalR2 (hGalR2),effect of cysteine mutation on receptor activation of GalR3 (hGalR3),"activity on GalR2, in words (hGalR2)","activity on GalR3, in words (hGalR3)",hGalR1 EC50 (hGalR1; [2]),EC50 (hGalR2),hGalR2 Emax (hGalR2),half-life at 100 μg/mL [1],EC50 (hGalR3),hGalR3 Emax (hGalR3),EC50 (hGalR1; [2]),hGalR1 Emax (hGalR1),"activity on GalR1, in words (hGalR1)","hGalR3 EC50 (hGalR3; HEK293 cells transfected with hGalR3, Gqi, SRE-Luc, 6 h treatment, full-dose)"
CC(C)C[C@@H]1NC(=O)[C@H](CC(C)C)NC(=O)[C@H](Cc2ccc(O)cc2)NC(=O)CNC(=O)[C@H](C)NC(=O)[C@H](CO)NC(=O)[C@H](CC(N)=O)NC(=O)[C@H](CC(C)C)NC(=O)[C@H]([C@@H](C)O)NC(=O)[C@H](Cc2c[nH]c3ccccc23)NC(=O)[C@@H](N)CSSC[C@@H](C(=O)N[C@@H](Cc2c[nH]cn2)C(=O)N[C@@H](C)C(=O)N[C@H](C(N)=O)C(C)C)NC(=O)CNC1=O [LH201] (H-CWTLNSAGYLLGCHAV-NH2; disulfide 1-13),–,–,kept full activity on GalR2,only able to activate GalR3 at high doses,–,120 nM,1.00,169 min,> 10000 nM,0.55,> 10000 nM,0.35,lost all activity on GalR1,–
CC(=O)N[C@H]1CSSC[C@@H](C(=O)N[C@@H](Cc2c[nH]cn2)C(=O)N[C@@H](C)C(=O)N[C@H](C(N)=O)C(C)C)NC(=O)CNC(=O)[C@H](CC(C)C)NC(=O)[C@H](CC(C)C)NC(=O)[C@H](Cc2ccc(O)cc2)NC(=O)CNC(=O)[C@H](C)NC(=O)[C@H](CO)NC(=O)[C@H](CC(N)=O)NC(=O)[C@H](CC(C)C)NC(=O)[C@H]([C@@H](C)O)NC(=O)[C@H](Cc2c[nH]c3ccccc23)NC1=O [LH201 (Ac)] (Ac-CWTLNSAGYLLGCHAV-NH2; disulfide 1-13),–,–,–,No activity,N.M.,480 nM,1.16,51.9 min,–,0.20,–,0.22,No activity,N.M.
"CC(C)C[C@H](NC(=O)[C@H](CC(C)C)NC(=O)[C@H](Cc1ccc(O)cc1)NC(=O)CNC(=O)[C@H](C)NC(=O)[C@H](CO)NC(=O)[C@H](CC(N)=O)NC(=O)[C@H](CC(C)C)NC(=O)[C@@H](NC(=O)[C@H](Cc1c[nH]c2ccccc12)NC(=O)CN)[C@@H](C)O)C(=O)NCC(=O)N1CCC[C@H]1C(=O)N[C@@H](Cc1c[nH]cn1)C(=O)N[C@@H](C)C(=O)N[C@H](C(N)=O)C(C)C [hGAL (1-16), reference compound]",–,–,–,–,–,–,1.02,14.1 min,> 10000 nM,0.45,–,–,–,–
CSCC[C@@H]1NC(=O)[C@H](C)NC(=O)[C@H](CCC(N)=O)NC(=O)[C@@H](NC(=O)[C@@H](NC(=O)[C@H](Cc2c[nH]c3ccccc23)NC(=O)[C@@H](N)CC(N)=O)[C@@H](C)O)CSSC[C@@H](C(=O)N[C@@H](CCC(N)=O)C(N)=O)NC(=O)CNC(=O)[C@H](CCCCN)NC(=O)[C@H](CC(C)C)NC(=O)[C@H](Cc2ccc(O)cc2)NC(=O)[C@H](CC(C)C)NC1=O [LH102] (H-NWTCQAMLYLKGCQ-NH2; disulfide 4-13; N-terminus assumed),–,–,–,–,N.M.,–,1.08,–,–,–,–,N.M.,–,–
C14: hSPX mutant with single mutation to cysteine at position 14 (NWTPQAMLYLKGAC-NH2),severely impaired bioactivity,severely impaired bioactivity,–,–,–,–,–,–,–,–,–,–,–,–
"CC(C)C[C@H](NC(=O)CNC(=O)[C@H](CC(N)=O)NC(=O)[C@H](CCCCN)NC(=O)[C@H](CC(=O)O)NC(=O)[C@H](CO)NC(=O)[C@H](Cc1ccccc1)NC(=O)[C@H](CO)NC(=O)[C@H](CCCNC(=N)N)NC(=O)[C@H](Cc1c[nH]cn1)NC(=O)[C@H](CC(N)=O)NC(=O)CNC(=O)[C@@H](NC(=O)[C@H](C)NC(=O)[C@H](Cc1c[nH]cn1)NC(=O)[C@@H]1CCCN1C(=O)CNC(=O)[C@H](CC(C)C)NC(=O)[C@H](CC(C)C)NC(=O)[C@H](Cc1ccc(O)cc1)NC(=O)CNC(=O)[C@H](C)NC(=O)[C@H](CO)NC(=O)[C@H](CC(N)=O)NC(=O)[C@H](CC(C)C)NC(=O)[C@@H](NC(=O)[C@H](Cc1c[nH]c2ccccc12)NC(=O)CN)[C@@H](C)O)C(C)C)C(=O)N[C@H](C(=O)N[C@@H](CO)C(N)=O)[C@@H](C)O [hGAL, reference compound]",–,–,–,–,–,–,0.94,–,–,0.68,–,–,–,–

# Continued, in another order:
effect of cysteine mutation on receptor activation of GalR2 (hGalR2),effect of cysteine mutation on receptor activation of GalR3 (hGalR3),"activity on GalR2, in words (hGalR2)","activity on GalR3, in words (hGalR3)",hGalR1 EC50 (hGalR1; [2]),Compound,EC50 (hGalR2),hGalR2 Emax (hGalR2),half-life at 100 μg/mL [1],EC50 (hGalR3),hGalR3 Emax (hGalR3),EC50 (hGalR1; [2]),hGalR1 Emax (hGalR1),"activity on GalR1, in words (hGalR1)","hGalR3 EC50 (hGalR3; HEK293 cells transfected with hGalR3, Gqi, SRE-Luc, 6 h treatment, full-dose)"
severely impaired bioactivity,severely impaired bioactivity,–,–,–,C12: hSPX mutant with single mutation to cysteine at position 12 (NWTPQAMLYLKCAQ-NH2),–,–,–,–,–,–,–,–,–
minimum effects,minimum effects,little effect on the potency,little effect on the potency,N.M.,CSCC[C@H](NC(=O)[C@H](C)NC(=O)[C@H](CCC(N)=O)NC(=O)[C@@H]1CCCN1C(=O)[C@@H](NC(=O)[C@H](Cc1c[nH]c2ccccc12)NC(=O)[C@@H](N)CS)[C@@H](C)O)C(=O)N[C@@H](CC(C)C)C(=O)N[C@@H](Cc1ccc(O)cc1)C(=O)N[C@@H](CC(C)C)C(=O)N[C@@H](CCCCN)C(=O)NCC(=O)N[C@@H](C)C(=O)N[C@@H](CCC(N)=O)C(N)=O [hSPX (C1)] (H-CWTPQAMLYLKGAQ-NH2; N-terminus assumed),–,1.05,–,–,1.00,–,N.M.,–,–
severely impaired bioactivity,severely impaired bioactivity,–,–,–,C10: hSPX mutant with single mutation to cysteine at position 10 (NWTPQAMLYCKGAQ-NH2),–,–,–,–,–,–,–,–,–
minimum effects,minimum effects,little effect on the potency,little effect on the potency,N.M.,CSCC[C@H](NC(=O)[C@H](C)NC(=O)[C@H](CCC(N)=O)NC(=O)[C@@H]1CCCN1C(=O)[C@@H](NC(=O)[C@H](Cc1c[nH]c2ccccc12)NC(=O)[C@@H](N)CC(N)=O)[C@@H](C)O)C(=O)N[C@@H](CC(C)C)C(=O)N[C@@H](Cc1ccc(O)cc1)C(=O)N[C@@H](CC(C)C)C(=O)N[C@@H](CCCCN)C(=O)NCC(=O)N[C@@H](CS)C(=O)N[C@@H](CCC(N)=O)C(N)=O [hSPX (C13)] (H-NWTPQAMLYLKGCQ-NH2; N-terminus assumed),–,0.87,–,–,0.88,–,N.M.,–,–
minimum effects,minimum effects,little effect on the potency,little effect on the potency,N.M.,CSCC[C@H](NC(=O)[C@H](C)NC(=O)[C@H](CCC(N)=O)NC(=O)[C@H](CS)NC(=O)[C@@H](NC(=O)[C@H](Cc1c[nH]c2ccccc12)NC(=O)[C@@H](N)CC(N)=O)[C@@H](C)O)C(=O)N[C@@H](CC(C)C)C(=O)N[C@@H](Cc1ccc(O)cc1)C(=O)N[C@@H](CC(C)C)C(=O)N[C@@H](CCCCN)C(=O)NCC(=O)N[C@@H](C)C(=O)N[C@@H](CCC(N)=O)C(N)=O [hSPX (C4)] (H-NWTCQAMLYLKGAQ-NH2; N-terminus assumed),–,0.98,–,–,0.91,–,N.M.,–,–

# — patent US10376555B2, “Identification of cyclic peptide agonists of galanin receptor 2 and 3 guided by spexin solution structure” (Hong Kong Baptist University, priority 2017, dated 2019)
